Tests used:
[1] = Oxidation in UV light in the presence of further antioxidants: beta-carotene emulsions on irradiation; format: physicochemical; settings: emulsion with 0.5% by weight beta-carotene and 4% by weight compound vs emulsion without compound, UV irradiation for 90 min, n=4
[2] = Oxidation in UV light: change in the UV spectrum on irradiation; format: physicochemical; settings: xenon lamp
Description: The curves stand for the unirradiated substance (exposed to 0 kJ/m^2), after irradiation for 15 min (exposure to 86 kJ/m^2), after irradiation for 65 min (exposure to 373 kJ/m^2), after irradiation for 235 min (exposure to 1349 kJ/m^2) and after irradiation for 405 min (exposure to 2325 kJ/m^2).

[3] = 2,2-diphenyl-1-picrylhydrazyl (DPPH) assay; settings: DPPH in ethanol, 515 nm, 25° C.
Description: The unpaired electron results in a strong absorption band at 515 nm, and the solution has a dark-violet colour. In the presence of a free-radical scavenger, the electron is paired, the absorption disappears, and the decoloration proceeds stoichiometrically taking into account the electrons taken up. The absorbance is measured in a photometer. The anti-free-radical property of the substance to be tested is determined by measuring the concentration at which 50% of the 2,2-diphenyl-1-picrylhydrazyl employed has reacted with the free-radical scavenger. This concentration is expressed as EC50, a value which should be regarded as a property of the substance under the given measurement conditions. The substance investigated is compared with a standard (for example tocopherol). The EC50 value here is a measure of the capacity of the respective compound to scavenge free radicals. The lower the EC50 value, the higher the capacity to scavenge free radicals. […] A further important aspect for the action of the antioxidants is the time in which this EC50 value is achieved. This time, measured in minutes, gives the TEC50 value, which allows a conclusion to be drawn on the rate at which these antioxidants scavenge free radicals. […] The unpaired electron results in a strong absorption band at 515 nm, and the solution has a dark-violet colour. In the presence of a free-radical scavenger, the electron is paired, the absorption disappears, and the decoloration proceeds stoichiometrically taking into account the electrons taken up. The absorbance is measured in a photometer. The anti-free-radical property of the substance to be tested is determined by measuring the concentration at which 50% of the 2,2-diphenyl-1-picrylhydrazyl employed have reacted with the free-radical scavenger. This concentration is expressed as EC50, a value which should be regarded as a substance property under the given measurement conditions. The substance investigated is compared with a standard (for example tocopherol). The EC50 value here is a measure of the capacity of the respective compound to scavenge free radicals. The lower the EC50 value, the higher the capacity to scavenge free radicals. […] Various concentrations of the compound to be tested are added to aliquots of this solution. The absorbance is measured in each case at 515 nm, 25° C. and 1 cm. […] The lower this value, the higher the corresponding free-radical-reducing activity. The reaction time needed to achieve this value is indicated in the value TEC50 (in minutes).

| SMILES | Effect on beta-carotene degradation (absorption at Emax 440-480 nm) in emulsion [1] | Emax of the UV-A absorption formed on irradiation ([2]; after UV irradiation, 290-400 nm) | Change in UV absorption in the UV-A region on irradiation ([2]; after irradiation for 65 min (373 kJ/m^2), 95.69 W/m^2 in the range 290-400 nm, increases further on longer irradiation) | Stability TEC50 (reaction time needed to achieve EC50) [3] |
| --- | --- | --- | --- | --- |
| CCCCC(CC)COC(=O)C(Cc1cc(OC)c(O)c(OC)c1)C(=O)OCC(CC)CCCC (stereo not drawn) [Hydroxy dimethoxybenzyl malonate, di-2-ethylhexyl 4-hydroxy-3,5-dimethoxy-benzylmalonate] | stabilises the beta-carotene | 320-340 nm | significantly increased UV absorption | 600 min |
| O=C1OC(C(O)CO)C(OP(=O)(O)O)=C1O (stereo not drawn) [Ascorbyl (2-O) phosphate] |  |  |  | 1200 min |
| O=C1O[C@H]([C@@H](O)CO)C(O)=C1O [Ascorbic acid] |  |  |  | <5 min |
| CCCCC(CC)COC(=O)C(=Cc1cc(OC)c(O)c(OC)c1)C(=O)OCC(CC)CCCC (stereo not drawn) [Hydroxy dimethoxybenzylidene malonate, Di-2-ethylhexyl (4-hydroxy-3,5-dimethoxybenzylidene)malonate] |  |  |  | 1200 min |
| Cc1c(C)c2c(c(C)c1O)CC[C@@](C)(CCC[C@H](C)CCC[C@H](C)CCCC(C)C)O2 [alpha-Tocopherol] |  |  |  | 30 min |
| CC(=O)Oc1c(C)c(C)c2c(c1C)CCC(C)(CCC[C@H](C)CCC[C@H](C)CCCC(C)C)O2 (stereo partly drawn) [alpha-Tocopheryl acetate] |  |  |  | 600 min |

From patent US8106233B2, “Antioxidant compounds” (Merck Patent GmbH, priority 2005, dated 2012)
